Results: patent US20140309974A1 (priority 2013, published 2014)

What was measured:
[1] = high doses of ribavirin; cited from earlier work
[2] = tested on: HSV-1 KOS strain expressing green fluorescent protein (GFP); assay: HSV-1 (KOS, GFP reporter) infection of NIH 3T3 cells, flow cytometry of GFP-positive cells; type: cell-based, herpes simplex virus-1 on NIH 3T3 cells; conditions: for percentage of infected (GFP-positive) cells after treatment / antiviral effect on HSV-1 infection (in words): NIH 3T3 cells; for percentage of infected (GFP-positive) cells after treatment: MOI about 0.1, about 16 hours, no drug gives about 60%; for antiviral effect on HSV-1 infection (in words): HSV-1 KOS GFP, flow cytometry / fluorescence images
Experimental: Cell culture: NIH 3T3 cells were grown on 15 cm plates in DMEM supplemented with about 5% Fetalplex and about 1% penicillin/streptomycin and kept in an about 37° C. incubator with about 5% CO2. To propagate cells, the experiments involved plating 107 on each […] plate and splitting the cells every 24 hours. For each experimental iteration, the experiments plated 2×10^5 cells/well in a 24-well plate. To minimize variance generated from different batches of cells, the trial group and crossover group were tested and compared using the same batch of cells for each iteration.
Viral infection: HSV-1 KOS strain expressing green fluorescent protein (GFP) in frame with the ICPO protein between amino acids 104 and 105 was used. The virus was prepared by propagation of virus on a confluent monolayer of Vero cells. Supernatants from infected cells were collected and centrifuged to separate cell debris. The cell pellet in residual medium was frozen and thawed three times at about −80° C. and about 37° C., respectively. The residual supernatant was then pooled together with the original supernatant, and viral titers were determined by a standard plaque assay on Vero cell monolayers. Multiplicity of infection (MOI) of about 0.1 was used throughout except as indicated. To control MOI, cells, virus, and drug combinations were added at the same time and incubated at about 37° C. After about 17 hours, culture medium was aspirated, and cells were detached with PBS-EDTA treatment at about 37° C. for about 5 minutes. Detached cells were transferred to flow cytometry tubes, pelleted, and re-suspended in about 1.6% PFA and kept at about 4° C. until analysis. A BD FACS Canto II was used for flow cytometry analysis.
HSV-1 infectious disease model: HSV-1 infection on an NIH 3T3 fibroblast cell line was used as an in vitro model system to search for new therapeutic drug combinations. The antiviral drugs that are used in the therapeutic model include three antiviral cytokines (IFN-α, IFN-β, and IFN-γ), ribavirin, acyclovir, and TNF-α. Virus-infected cells were treated with single drugs or drug combinations and cultured for about 16 hours. The HSV-1 strain used to infect the NIH 3T3 cells encodes a GFP reporter in infected cells, allowing flow cytometric analysis of cells to measure the rate and extent of infection, because the fluorescence intensity of GFP correlated to the presence of virus. Determination of efficacy of drug treatments was made by comparing the number of GFP-negative non-infected cells in the absence or presence of drug treatment. This value was considered the antiviral readout of a drug treatment.
The infectious dose of HSV-1 used (MOI: number of infectious virions per cell) is an important parameter when evaluating the outcome of potential therapies. […] An MOI of about 0.1 was used throughout the studies.

Compound	reported side effects [1]	percentage of infected (GFP-positive) cells after treatment [2]	antiviral effect on HSV-1 infection (in words) [2]	viral infection over incubation time, day 1 to day 4 (in words) ([2]; HSV-1-infected cells cultured 1 day to 4 days in presence of drug, flow cytometry)
NC(=O)c1ncn([C@@H]2O[C@H](CO)[C@@H](O)[C@H]2O)n1 [ribavirin]	cause anemia, to be teratogenic in some animal tests, and to inhibit DNA synthesis in a dosage dependent manner	about 5%	–	–
TNF-α	–	–	potentiated HSV-1 infection, resulting in more infected cells than the non-treated control	–
Nc1nc2c(ncn2COCCO)c(=O)[nH]1 [acyclovir]	–	about 15%	reduced the infection rate, though a large percentage of cells were infected despite drug treatment	remained constant as time increased
